Experimental data reported in the supplement of paper PMC13380429.

Legend:
Conditions in all cases: 72 h
[1] = system: HepG2; assay: drug sensitivity score (DSS) for viability; higher = more toxic; extreme values may be limits of the assay
[2] = system: Vero E6; assay: as above
[3] = system: Caco-2; assay: as above
[4] = system: U2OS; assay: as above
[5] = system: Calu-3; assay: as above
[6] = system: HepG2; assay: relative viability EC50 (midpoint between 100% and the lowest measured viability); higher = less toxic
[7] = system: Vero E6; assay: as above
[8] = system: Caco-2; assay: as above
[9] = system: U2OS; assay: as above
[10] = system: Calu-3; assay: as above
[11] = system: HepG2; assay: cell viability relative to DMSO; higher = less toxic
[12] = system: Vero E6; assay: as above
[13] = system: Caco-2; assay: as above
[14] = system: U2OS; assay: as above
[15] = system: Calu-3; assay: as above

Compound | drug sensitivity score [1] | drug sensitivity score [2] | drug sensitivity score [3] | drug sensitivity score [4] | drug sensitivity score [5] | relative viability EC50 [6] | relative viability EC50 [7] | relative viability EC50 [8] | relative viability EC50 [9] | relative viability EC50 [10] | cell viability ([11]; 1 nM) | cell viability ([11]; 10 nM) | cell viability ([11]; 100 nM) | cell viability ([11]; 1000 nM) | cell viability ([11]; 10000 nM) | cell viability ([12]; 1 nM) | cell viability ([12]; 10 nM) | cell viability ([12]; 100 nM) | cell viability ([12]; 1000 nM) | cell viability ([12]; 10000 nM) | cell viability ([13]; 1 nM) | cell viability ([13]; 10 nM) | cell viability ([13]; 100 nM) | cell viability ([13]; 1000 nM) | cell viability ([13]; 10000 nM) | cell viability ([14]; 1 nM) | cell viability ([14]; 10 nM) | cell viability ([14]; 100 nM) | cell viability ([14]; 1000 nM) | cell viability ([14]; 10000 nM) | cell viability ([15]; 1 nM) | cell viability ([15]; 10 nM) | cell viability ([15]; 100 nM) | cell viability ([15]; 1000 nM) | cell viability ([15]; 10000 nM)
OCc1cccnc1 [nicotinyl-alcohol-tartrate] | 0 | 0 | 0 | 0 | 0 | > 10 µM | > 10 µM | > 10 µM | > 10 µM | > 10 µM | 95.4% | 102% | 91.2% | 104% | 96.1% | 92.6% | 101% | 87.8% | 101% | 91.8% | 97.8% | 97% | 102% | 96.1% | 106% | 102% | 104% | 96.7% | 100% | 95.5% | 96.6% | 100% | 92.7% | 99.3% | 96.4%
CC[C@H](C)[C@@H]1NC(=O)[C@H](Cc2ccc(OC)cc2)NC(=O)CCCSC[C@@H](C(=O)N2CCC[C@H]2C(=O)N[C@@H](CC(C)C)C(=O)NCC(N)=O)NC(=O)[C@H](CC(N)=O)NC(=O)[C@H](CCC(N)=O)NC1=O [carbetocin] | 0 | 0 | 0.3 | 0 | 0.6 | > 10 µM | > 10 µM | > 10 µM | > 10 µM | > 10 µM | 103% | 103% | 91.3% | 99.7% | 93.3% | 104% | 104% | 99.3% | 101% | 95.8% | 99.7% | 98.6% | 97.3% | 90.5% | 87.4% | 94.9% | 91.3% | 98.4% | 95.2% | 100% | 103% | 104% | 102% | 106% | 75.7%
CCCCc1ccc(NS(=O)(=O)c2ccc(F)cc2)cc1 | 1.6 | 0 | 0 | 0 | 0 | > 10 µM | > 10 µM | > 10 µM | > 10 µM | > 10 µM | 101% | 114% | 86.6% | 99.4% | 86.5% | 101% | 101% | 99.9% | 99.1% | 96.2% | 94.9% | 87.2% | 98.6% | 93.3% | 88.5% | 97.4% | 96.2% | 99% | 101% | 100% | 93.2% | 87.6% | 100% | 98.5% | 102%
Cc1cccc(-c2[nH]c(C(C)(C)C)nc2-c2ccc3nccnc3c2)n1 | 7.9 | 0.7 | 5.4 | 1.3 | 0 | 1.64 µM | > 10 µM | 2.14 µM | > 10 µM | > 10 µM | 101% | 95.2% | 103% | 80.5% | 12.9% | 99.3% | 99.4% | 104% | 98.1% | 81.6% | 104% | 98.1% | 104% | 91.1% | 29.8% | 96.8% | 101% | 95% | 89.2% | 79% | 106% | 104% | 109% | 102% | 87.3%
O=C(NC(=O)c1c(F)cccc1F)Nc1cc(Cl)c(OC(F)(F)C(F)C(F)(F)F)cc1Cl (stereo not given) [lufenuron] | 0 | 0 | 0 | 0 | 0 | > 10 µM | > 10 µM | > 10 µM | > 10 µM | > 10 µM | 98.6% | 94.3% | 109% | 101% | 101% | 99.2% | 108% | 98.3% | 110% | 100% | 100% | 95.1% | 93.8% | 96.8% | 95% | 100% | 95.1% | 96.7% | 98.4% | 99.7% | 95.4% | 98.9% | 92.1% | 83.2% | 95.3%
COc1ccc(N(C)c2nc(C)nc3ccccc23)cc1 [verubulin] | 26.2 | 33.5 | 22.4 | 29.6 | 20.2 | 0.0069 µM | 0.0037 µM | 0.0156 µM | 0.0133 µM | 0.0151 µM | 108% | 52.4% | 34.3% | 36.3% | 41.4% | 93% | 32.6% | 21.4% | 23.9% | 27.9% | 103% | 76.2% | 40.5% | 38.3% | 34.6% | 102% | 72.6% | 17.3% | 18% | 18.3% | 94.9% | 77.2% | 46.6% | 42.3% | 40.3%
COc1cc([C@@H]2c3cc4c(cc3[C@@H](O[C@@H]3O[C@@H]5CO[C@@H](C)O[C@H]5[C@H](O)[C@H]3O)[C@H]3COC(=O)[C@H]23)OCO4)cc(OC)c1OP(=O)(O)O [etoposide-phosphate] | 10 | 0.3 | 0 | 0 | 5 | 0.478 µM | > 10 µM | > 10 µM | > 10 µM | 1.49 µM | 88.6% | 86.8% | 85.4% | 59.7% | 29.5% | 93.3% | 97.6% | 92.7% | 86.7% | 88.3% | 81.7% | 92.6% | 91.9% | 102% | 107% | 95.1% | 104% | 94.9% | 99.7% | 108% | 107% | 106% | 98.3% | 85.7% | 47.1%
Cc1ncc(Cl)cc1NCc1ccc(C(=O)N[C@@H](CC2CCCC2)C(=O)NC2CC2)s1 | 0.4 | 0 | 0 | 0 | 0 | > 10 µM | > 10 µM | > 10 µM | > 10 µM | > 10 µM | 100% | 102% | 97.5% | 89.7% | 88.2% | 107% | 94.7% | 104% | 98% | 91.6% | 99.9% | 104% | 97.5% | 96.3% | 96.6% | 99.5% | 104% | 94.5% | 95% | 90.6% | 94.7% | 106% | 99.8% | 89.7% | 109%
C[C@@H](O)[C@H]1C(=O)N2C(C(=O)O)=C([C@H]3CCCO3)S[C@H]12 [faropenem] | 0 | 0 | 0 | 0 | 0 | > 10 µM | > 10 µM | > 10 µM | > 10 µM | > 10 µM | 103% | 99.4% | 104% | 103% | 98.7% | 97.2% | 99.5% | 102% | 96.8% | 97.1% | 95% | 91% | 101% | 100% | 95% | 101% | 101% | 94.6% | 96.6% | 98.8% | 106% | 96.5% | 99.6% | 98% | 105%
N[C@@]1(C(=O)O)CC[C@H]2[C@H](C(=O)O)[C@H]21 [eglumetad] | 0 | 0 | 0 | 0 | 0 | > 10 µM | > 10 µM | > 10 µM | > 10 µM | > 10 µM | 113% | 92.5% | 102% | 97.6% | 116% | 99% | 99% | 94.9% | 100% | 96.6% | 107% | 104% | 93.8% | 102% | 97.2% | 101% | 101% | 97.3% | 96.6% | 96% | 95.7% | 102% | 97.3% | 93.2% | 104%
CNc1ncc2cc(-c3cc(NC(=O)NCCC(C)(C)C)c(F)cc3C)c(C)nc2n1 | 18.9 | 9.1 | 7.2 | 7.4 | 7.7 | 0.189 µM | 0.915 µM | 1.09 µM | 1.67 µM | 1.34 µM | 111% | 98.9% | 78.2% | 12.5% | 8.3% | 96.6% | 103% | 95.1% | 59.2% | 22.3% | 101% | 97.9% | 99.1% | 71.1% | 35.7% | 104% | 104% | 97.9% | 82.3% | 17.6% | 90.9% | 106% | 106% | 75.5% | 24.6%
